Columns and labels:
[1] = molecular target: 3',5'-cyclic-AMP phosphodiesterase 4B (Homo sapiens, UniProt Q07343); experiment: Inhibition of PDE4B1 (unknown origin)
[2] = molecular target: 3',5'-cyclic-AMP phosphodiesterase 4C (Homo sapiens, UniProt Q08493); experiment: Inhibition of PDE4C (unknown origin)
[3] = molecular target: cGMP-inhibited 3',5'-cyclic phosphodiesterase 3A (Homo sapiens) (UniProt Q14432); experiment: Inhibition of PDE3A (unknown origin) at 10 uM relative to control
[4] = molecular target: cGMP-specific 3',5'-cyclic phosphodiesterase (Homo sapiens) (UniProt O76074); experiment: Inhibition of human PDE5 at 10 uM relative to control
Homo sapiens [5] = species: Homo sapiens; experiment: Inhibition of P70S6K (unknown origin) in presence of 10 uM ATP by Z'-LYTE biochemical assay relative to control
[6] = molecular target: Mitogen-activated protein kinase 14 (Homo sapiens) (UniProt Q16539); experiment: Inhibition of p38alpha (unknown origin) at 10 uM in presence of ATP relative to control
[7] = molecular target: Cyclin-dependent kinase 18 (Homo sapiens) (UniProt Q07002); experiment: Inhibition of CDK18 (unknown origin) at 10 uM relative to control
Sequence of Cyclin-dependent kinase 18 (Homo sapiens) (Q07002 whole entry, canonical isoform): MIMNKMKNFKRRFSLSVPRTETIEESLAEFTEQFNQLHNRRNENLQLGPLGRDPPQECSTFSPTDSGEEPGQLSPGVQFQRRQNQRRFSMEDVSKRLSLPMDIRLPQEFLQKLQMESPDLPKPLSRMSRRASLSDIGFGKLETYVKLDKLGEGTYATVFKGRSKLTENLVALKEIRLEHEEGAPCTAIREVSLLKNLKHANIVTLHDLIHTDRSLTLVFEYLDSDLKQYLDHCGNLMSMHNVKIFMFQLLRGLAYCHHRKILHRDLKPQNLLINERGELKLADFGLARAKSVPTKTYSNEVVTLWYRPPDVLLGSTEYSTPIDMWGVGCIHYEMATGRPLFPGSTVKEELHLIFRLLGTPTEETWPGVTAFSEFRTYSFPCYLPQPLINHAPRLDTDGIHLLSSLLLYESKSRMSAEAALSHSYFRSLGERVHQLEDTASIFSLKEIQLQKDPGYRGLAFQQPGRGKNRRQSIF

[8] = molecular target: Casein kinase I isoform alpha (Homo sapiens) (UniProt P48729); experiment: Inhibition of CK1 alpha (unknown origin) at 10 uM relative ton control
Sequence of Casein kinase I isoform alpha (Homo sapiens) (P48729 2-337 limits assumed): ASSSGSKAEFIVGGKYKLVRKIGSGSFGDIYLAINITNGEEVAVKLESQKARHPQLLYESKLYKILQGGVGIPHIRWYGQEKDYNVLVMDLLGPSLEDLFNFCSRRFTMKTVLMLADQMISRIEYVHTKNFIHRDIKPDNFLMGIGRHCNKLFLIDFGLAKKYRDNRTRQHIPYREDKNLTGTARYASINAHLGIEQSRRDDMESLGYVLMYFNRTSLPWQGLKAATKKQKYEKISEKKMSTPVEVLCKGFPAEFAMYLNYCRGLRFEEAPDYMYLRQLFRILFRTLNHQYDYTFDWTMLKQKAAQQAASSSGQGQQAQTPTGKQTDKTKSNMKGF

Homo sapiens [9] = species: Homo sapiens; experiment: Inhibition of MKK6 (unknown origin) at 10 uM relative to control
[10] = molecular target: CDK7/Cyclin H/MNAT1 (Homo sapiens) (UniProt P51946+P50613+P51948); experiment: Inhibition of CDK7/cyclinH/MAT1 (unknown origin) at 10 uM in presence of ATP relative to control; format: protein-complex assay
[11] = Plasma protein binding in human assessed as unbound fraction at 1 uM incubated for 6 hrs by LC-MS/MS analysis; format: ADME, cell-free
[12] = Plasma protein binding in human assessed as unbound fraction at 10 uM incubated for 6 hrs by LC-MS/MS analysis; format: ADME, cell-free
[13] = Plasma protein binding in human assessed as unbound fraction at 30 uM incubated for 6 hrs by LC-MS/MS analysis; format: ADME, cell-free
[14] = Plasma protein binding in Sprague-Dawley rat assessed as unbound fraction at 1 uM incubated for 6 hrs by LC-MS/MS analysis; format: ADME, cell-free
[15] = Plasma protein binding in Sprague-Dawley rat assessed as unbound fraction at 30 uM incubated for 6 hrs by LC-MS/MS analysis; format: ADME, cell-free
[16] = Plasma protein binding in Sprague-Dawley rat assessed as unbound fraction at 10 uM incubated for 6 hrs by LC-MS/MS analysis; format: ADME, cell-free
[17] = Plasma protein binding in cynomolgus monkey assessed as unbound fraction at 1 uM incubated for 6 hrs by LC-MS/MS analysis; format: ADME, cell-free, Macaca fascicularis
[18] = Plasma protein binding in cynomolgus monkey assessed as unbound fraction at 10 uM incubated for 6 hrs by LC-MS/MS analysis; format: ADME, cell-free, Macaca fascicularis
[19] = Plasma protein binding in cynomolgus monkey assessed as unbound fraction at 30 uM incubated for 6 hrs by LC-MS/MS analysis; format: ADME, cell-free, Macaca fascicularis
[20] = AUC (0 to t) in Beagle dog at 40 mg/kg, po by LC-MS/MS analysis; format: ADME, organism-based, Canis lupus familiaris; conditions: in vivo
[21] = Tmax in Sprague-Dawley rat at 10 mg/kg, po by LC-MS analysis; format: ADME, organism-based; conditions: in vivo
[22] = Cmax in Sprague-Dawley rat at 10 mg/kg, po by LC-MS analysis; format: ADME, organism-based; conditions: in vivo
[23] = AUC (0 to t) in Sprague-Dawley rat at 10 mg/kg, po by LC-MS analysis; format: ADME, organism-based; conditions: in vivo
[24] = Half life in Sprague-Dawley rat at 10 mg/kg, po by LC-MS/MS analysis; format: ADME, organism-based; conditions: in vivo
[25] = AUC (0 to infinity) in Sprague-Dawley rat at 10 mg/kg, po by LC-MS/MS analysis; format: ADME, organism-based; conditions: in vivo
[26] = Tmax in Sprague-Dawley rat at 50 mg/kg, po by LC-MS analysis; format: ADME, organism-based; conditions: in vivo
[27] = Cmax in Sprague-Dawley rat at 50 mg/kg, po by LC-MS analysis; format: ADME, organism-based; conditions: in vivo
[28] = AUC (0 to t) in Sprague-Dawley rat at 50 mg/kg, po by LC-MS analysis; format: ADME, organism-based; conditions: in vivo
[29] = Half life in Sprague-Dawley rat at 50 mg/kg, po by LC-MS/MS analysis; format: ADME, organism-based; conditions: in vivo
[30] = AUC (0 to infinity) in Sprague-Dawley rat at 50 mg/kg, po by LC-MS/MS analysis; format: ADME, organism-based; conditions: in vivo
[31] = AUC (0 to infinity) in Sprague-Dawley rat at 20 mg/kg, po by LC-MS/MS analysis; format: ADME, organism-based; conditions: in vivo
[32] = AUC (0 to infinity) in Sprague-Dawley rat at 30 mg/kg, po by LC-MS/MS analysis; format: ADME, organism-based; conditions: in vivo
[33] = Half life in Sprague-Dawley rat at 20 mg/kg, po by LC-MS/MS analysis; format: ADME, organism-based; conditions: in vivo
[34] = Half life in Sprague-Dawley rat at 30 mg/kg, po by LC-MS/MS analysis; format: ADME, organism-based; conditions: in vivo
[35] = AUC (0 to t) in Sprague-Dawley rat at 20 mg/kg, po by LC-MS analysis; format: ADME, organism-based; conditions: in vivo
[36] = AUC (0 to t) in Sprague-Dawley rat at 30 mg/kg, po by LC-MS analysis; format: ADME, organism-based; conditions: in vivo
[37] = Tmax in Sprague-Dawley rat at 20 mg/kg, po by LC-MS analysis; format: ADME, organism-based; conditions: in vivo
[38] = Tmax in Sprague-Dawley rat at 30 mg/kg, po by LC-MS analysis; format: ADME, organism-based; conditions: in vivo
[39] = Cmax in Sprague-Dawley rat at 20 mg/kg, po measured for 24 hrs by LC-MS/MS analysis; format: ADME, organism-based; conditions: in vivo
[40] = AUC (0 to infinity) in Sprague-Dawley rat at 20 mg/kg, po measured for 24 hrs by LC-MS/MS analysis; format: ADME, organism-based; conditions: in vivo
[41] = molecular target: Dual specificity mitogen-activated protein kinase kinase 1 (Homo sapiens) (UniProt Q02750); experiment: Inhibition of MKK1 (unknown origin) at 1 uM relative to control; conditions: values are per cent of control
Sequence of Dual specificity mitogen-activated protein kinase kinase 1 (Homo sapiens) (Q02750 whole entry): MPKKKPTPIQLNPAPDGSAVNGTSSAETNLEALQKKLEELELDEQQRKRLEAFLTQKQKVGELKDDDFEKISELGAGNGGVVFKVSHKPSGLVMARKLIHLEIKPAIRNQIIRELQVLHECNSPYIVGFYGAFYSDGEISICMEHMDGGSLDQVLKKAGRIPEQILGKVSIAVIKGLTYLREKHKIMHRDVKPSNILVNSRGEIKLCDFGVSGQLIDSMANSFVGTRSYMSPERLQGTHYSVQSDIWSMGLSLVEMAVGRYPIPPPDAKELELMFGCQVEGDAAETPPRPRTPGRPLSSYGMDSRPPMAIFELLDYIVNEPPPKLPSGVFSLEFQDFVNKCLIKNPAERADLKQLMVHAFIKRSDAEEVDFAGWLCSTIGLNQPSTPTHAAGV

[42] = molecular target: Mitogen-activated protein kinase 1 (Homo sapiens) (UniProt P28482); experiment: Inhibition of ERK2 (unknown origin) at 1 uM relative to control; conditions: values are per cent of control
[43] = molecular target: Mitogen-activated protein kinase 8 (Homo sapiens) (UniProt P45983); experiment: Inhibition of JNK1alpha1 (unknown origin) at 1 uM relative to control; conditions: values are per cent of control
[44] = molecular target: Ribosomal protein S6 kinase alpha-1 (Homo sapiens) (UniProt Q15418); experiment: Inhibition of RSK1 (unknown origin) at 1 uM relative to control; conditions: values are per cent of control
[45] = molecular target: MAP kinase-activated protein kinase 5 (Homo sapiens) (UniProt Q8IW41); experiment: Inhibition of PRAK (unknown origin) at 1 uM relative to control; conditions: values are per cent of control
Sequence of MAP kinase-activated protein kinase 5 (Homo sapiens) (Q8IW41 whole entry): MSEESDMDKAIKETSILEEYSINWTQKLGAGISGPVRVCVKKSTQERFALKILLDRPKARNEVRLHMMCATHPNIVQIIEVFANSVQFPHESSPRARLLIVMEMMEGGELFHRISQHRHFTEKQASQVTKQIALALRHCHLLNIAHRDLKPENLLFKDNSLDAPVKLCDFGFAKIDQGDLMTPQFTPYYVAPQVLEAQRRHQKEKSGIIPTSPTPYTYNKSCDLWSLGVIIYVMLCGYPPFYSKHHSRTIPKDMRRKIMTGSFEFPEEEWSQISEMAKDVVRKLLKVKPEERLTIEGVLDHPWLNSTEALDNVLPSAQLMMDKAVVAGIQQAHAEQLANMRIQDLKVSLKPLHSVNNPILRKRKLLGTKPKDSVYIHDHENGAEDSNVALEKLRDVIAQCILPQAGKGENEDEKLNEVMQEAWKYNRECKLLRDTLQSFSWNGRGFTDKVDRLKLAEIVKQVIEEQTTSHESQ

Homo sapiens [46] = species: Homo sapiens; experiment: Inhibition of PKA (unknown origin) at 1 uM relative to control; conditions: values are per cent of control
[47] = molecular target: T1, Protein kinase C alpha type (Homo sapiens, UniProt P17252); experiment: Inhibition of PKCalpha (unknown origin) at 1 uM in presence of ATP relative to control; conditions: values are per cent of control
[48] = molecular target: Serine/threonine-protein kinase Sgk1 (Homo sapiens) (UniProt O00141); experiment: Inhibition of SGK1 (unknown origin) at 1 uM by Z'LYTE kinase assay relative to control; conditions: values are per cent of control
[49] = molecular target: Ribosomal protein S6 kinase beta-1 (Homo sapiens) (UniProt P23443); experiment: Inhibition of S6K1 (unknown origin) at 1 uM relative to control; conditions: values are per cent of control
Sequence of Ribosomal protein S6 kinase beta-1 (Homo sapiens) (P23443 whole entry, looked up): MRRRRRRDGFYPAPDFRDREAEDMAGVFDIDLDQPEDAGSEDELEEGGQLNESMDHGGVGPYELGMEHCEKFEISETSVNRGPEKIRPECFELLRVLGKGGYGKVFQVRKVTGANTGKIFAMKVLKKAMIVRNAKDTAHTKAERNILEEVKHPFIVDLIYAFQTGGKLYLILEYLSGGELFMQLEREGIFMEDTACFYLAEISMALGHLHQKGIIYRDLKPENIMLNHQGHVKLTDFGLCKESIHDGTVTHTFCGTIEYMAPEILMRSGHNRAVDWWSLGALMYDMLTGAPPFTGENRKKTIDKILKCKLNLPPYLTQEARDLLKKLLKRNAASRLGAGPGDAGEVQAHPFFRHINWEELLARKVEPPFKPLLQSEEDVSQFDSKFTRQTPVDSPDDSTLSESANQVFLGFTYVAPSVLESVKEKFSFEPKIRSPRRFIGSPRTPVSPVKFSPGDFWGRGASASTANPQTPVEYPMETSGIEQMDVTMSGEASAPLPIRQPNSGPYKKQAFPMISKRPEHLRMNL

[50] = molecular target: Rho-associated protein kinase 2 (Homo sapiens) (UniProt O75116); experiment: Inhibition of ROCK2 (unknown origin) at 1 uM relative to control; conditions: values are per cent of control
[51] = molecular target: Casein kinase 2 (Homo sapiens) (UniProt P67870+P68400+P19784+Q8NEV1); experiment: Inhibition of CK2 (unknown origin) at 1 uM relative to control; format: protein assay; conditions: values are per cent of control
Homo sapiens [52] = species: Homo sapiens; experiment: Inhibition of CK1 (unknown origin) at 1 uM relative to control; conditions: values are per cent of control
Homo sapiens [53] = species: Homo sapiens; experiment: Inhibition of CK1 (unknown origin) at 10 uM relative to control; conditions: values are per cent of control
[54] = molecular target: Dual specificity tyrosine-phosphorylation-regulated kinase 1A (Homo sapiens) (UniProt Q13627); experiment: Inhibition of DYRK1A (unknown origin) at 1 uM relative to control; conditions: values are per cent of control
[55] = molecular target: Dual specificity tyrosine-phosphorylation-regulated kinase 1A (Homo sapiens) (UniProt Q13627); experiment: Inhibition of DYRK1A (unknown origin) at 10 uM relative to control; conditions: values are per cent of control
[56] = molecular target: T1, Protein kinase C alpha type; experiment: Inhibition of PKCalpha (unknown origin)
[57] = molecular target: Protein kinase C beta type (Homo sapiens, UniProt P05771); experiment: Inhibition of PKCbeta2 (unknown origin)

Sequence of 3',5'-cyclic-AMP phosphodiesterase 4C (Q08493 whole entry): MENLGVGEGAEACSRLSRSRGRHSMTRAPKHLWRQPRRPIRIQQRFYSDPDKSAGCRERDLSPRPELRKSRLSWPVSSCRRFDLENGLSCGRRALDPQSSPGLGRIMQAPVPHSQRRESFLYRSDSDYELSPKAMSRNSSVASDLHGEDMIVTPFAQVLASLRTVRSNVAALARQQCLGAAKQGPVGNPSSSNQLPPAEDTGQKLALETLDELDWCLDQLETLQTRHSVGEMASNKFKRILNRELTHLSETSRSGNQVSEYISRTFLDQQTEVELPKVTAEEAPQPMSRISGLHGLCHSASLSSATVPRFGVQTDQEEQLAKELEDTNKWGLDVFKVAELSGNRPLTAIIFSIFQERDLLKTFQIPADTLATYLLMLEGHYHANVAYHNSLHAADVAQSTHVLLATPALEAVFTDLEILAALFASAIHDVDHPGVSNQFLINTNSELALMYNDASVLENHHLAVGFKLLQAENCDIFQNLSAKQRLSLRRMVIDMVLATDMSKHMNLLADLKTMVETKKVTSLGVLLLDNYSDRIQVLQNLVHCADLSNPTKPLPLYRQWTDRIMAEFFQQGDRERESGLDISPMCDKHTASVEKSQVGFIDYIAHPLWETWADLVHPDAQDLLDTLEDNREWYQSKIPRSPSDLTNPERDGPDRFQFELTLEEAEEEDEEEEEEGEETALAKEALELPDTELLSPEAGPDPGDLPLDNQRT
Sequence of 3',5'-cyclic-AMP phosphodiesterase 4B (Q07343 whole entry): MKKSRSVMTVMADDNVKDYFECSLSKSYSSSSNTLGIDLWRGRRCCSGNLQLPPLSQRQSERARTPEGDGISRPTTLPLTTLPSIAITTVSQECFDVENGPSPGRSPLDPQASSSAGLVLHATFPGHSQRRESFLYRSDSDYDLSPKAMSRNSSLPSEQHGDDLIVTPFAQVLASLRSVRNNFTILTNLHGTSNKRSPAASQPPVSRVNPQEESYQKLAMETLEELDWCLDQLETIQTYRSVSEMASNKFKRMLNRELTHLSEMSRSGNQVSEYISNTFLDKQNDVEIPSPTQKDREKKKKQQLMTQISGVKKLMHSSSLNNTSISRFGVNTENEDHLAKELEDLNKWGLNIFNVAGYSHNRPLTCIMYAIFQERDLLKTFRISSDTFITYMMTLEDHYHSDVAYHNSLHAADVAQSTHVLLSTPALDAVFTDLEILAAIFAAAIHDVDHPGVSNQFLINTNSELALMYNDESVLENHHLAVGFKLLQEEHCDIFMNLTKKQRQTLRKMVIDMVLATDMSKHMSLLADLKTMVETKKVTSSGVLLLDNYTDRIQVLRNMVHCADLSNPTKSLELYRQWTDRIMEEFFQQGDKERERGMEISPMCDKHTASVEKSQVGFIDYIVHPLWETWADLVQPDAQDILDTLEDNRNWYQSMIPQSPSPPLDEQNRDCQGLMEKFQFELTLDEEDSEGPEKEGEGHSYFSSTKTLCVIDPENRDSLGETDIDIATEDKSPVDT

## Cn1c([S+](C)[O-])nc(-c2ccc(F)cc2)c1-c1ccnc(N)c1 (centres undefined)
[1]
  IC50: 3.5 µM
[2]
  IC50: > 10 µM
[3]
  inhibition: 30%
[4]
  inhibition: 30%

## CC(=O)Nc1cc(-c2c(-c3ccc(F)cc3)nc([S+](C)[O-])n2C)ccn1 (centres undefined)
Homo sapiens [5]
  inhibition: 32%
[1]
  IC50: 1.9 µM
[2]
  IC50: 6.4 µM
[6]
  inhibition: 35%
[7]
  inhibition: 94%
[8]
  inhibition: 97%
Homo sapiens [9]
  inhibition: 62%
[10]
  inhibition: 54%
[11]
  fraction unbound at 6 h, 1 µM: 0.9
[12]
  fraction unbound at 6 h, 10 µM: 0.806
[13]
  fraction unbound at 6 h, 30 µM: 0.781
[14]
  fraction unbound at 6 h, 1 µM: 0.863
[15]
  fraction unbound at 6 h, 30 µM: 0.754
[16]
  fraction unbound at 6 h, 10 µM: 0.631
[17]
  fraction unbound at 6 h, 1 µM: 0.667
[18]
  fraction unbound at 6 h, 10 µM: 0.611
[19]
  fraction unbound at 6 h, 30 µM: 0.583
[20]
  AUCt: 93.4 µM·h
[21]
  Tmax: 2.2 h
[22]
  Cmax: 200 nM
[23]
  AUCt: 0.95 µM·h
[24]
  half-life: 2.7 h
[25]
  AUC: 1.04 µM·h
[26]
  Tmax: 1.5 h
[27]
  Cmax: 590 nM
[28]
  AUCt: 3.4 µM·h
[29]
  half-life: 3.2 h
[30]
  AUC: 3.58 µM·h
[31]
  AUC: 2.24 µM·h
[32]
  AUC: 3.05 µM·h
[33]
  half-life: 3.3 h
[34]
  half-life: 3.4 h
[35]
  AUCt: 0.31 µM·h
[36]
  AUCt: 0.42 µM·h
[37]
  Tmax: 2.9 h
[38]
  Tmax: 2.3 h
[39]
  Cmax: 314 nM
[40]
  AUC: 2.24 µM·h

## Cc1ccc(-n2nc(C(C)(C)C)cc2NC(=O)Nc2ccc(OCCN3CCOCC3)c3ccccc23)cc1
[41]
  residual activity: 71%
[42]
  residual activity: 79%
[43]
  residual activity: 70%
[44]
  residual activity: 59%
[45]
  residual activity: 71%
Homo sapiens [46]
  residual activity: 88%
[47]
  residual activity: 80%
[48]
  residual activity: 94%
[49]
  residual activity: 119%
[50]
  residual activity: 80%
[51]
  residual activity: 85%
Homo sapiens [52]
  residual activity: 87%
Homo sapiens [53]
  residual activity: 84%
[54]
  residual activity: 82%
[55]
  residual activity: 79%

## C[S+]([O-])c1ccc(-c2nc(-c3ccncc3)c(-c3ccc(F)cc3)[nH]2)cc1 (centres undefined) [SB-203580]
[56]
  IC50: > 100 µM
[57]
  IC50: > 50 µM

From ChEMBL document CHEMBL6083249, “The journey of p38 MAP kinase inhibitors: From bench to bedside in treating inflammatory diseases” (Eur J Med Chem, 2024)
